Measurements: PMC8763382, “2-Sulfonylpyrimidines as Privileged Warheads for the Development of S. aureus Sortase A Inhibitors” (Frontiers in Molecular Biosciences, 2022)
“And” between values parts separate entries of the source, which are not always exact repeats. Identical values can stand only once.

Key:
[1] = biological target: T1, S. aureus SrtA (Staphylococcus aureus, UniProt Q2FV99); experiment: fluorometric enzyme assay of SrtA transpeptidation (Abz-LPETG-Dap(Dnp)-OH substrate); type: biochemical
T1 construct: His tag (inferred from IMAC on a HisTrap column); made in house; host or cells: E. coli BL21 Gold (DE3)
T1 sequence (Q2FV99 60-206): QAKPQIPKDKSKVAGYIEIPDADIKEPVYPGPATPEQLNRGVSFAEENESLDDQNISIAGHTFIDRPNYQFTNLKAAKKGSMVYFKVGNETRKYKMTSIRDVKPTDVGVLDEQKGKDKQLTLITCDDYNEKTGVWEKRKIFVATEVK
Procedure: To evaluate the inhibition potency of the parent sulfonylpyrimidine 4, this compound was tested by means of a fluorometric enzyme assay with recombinantly expressed S. aureus SrtA ([Schmohl et al., 2017b]) and Abz-LPETG-Dap (Dnp)-OH as substrate. […] To verify the irreversible mode of inhibition, we determined the maximum inactivation rate k inact, the dissociation constant of the reversible enzyme-inhibitor complex KI, and the second-order rate of inhibition k 2nd. For compound 4, a k inact = 0.00065 s^−1 was found, which is very low compared to other covalent SrtA inhibitors ([Chan et al., 2017]; [Barthels et al., 2020]; [Jaudzems et al., 2020]).
Inhibition assays of S. aureus SrtA transpeptidation reactions were performed as described previously ([Barthels et al., 2020]). Briefly, the recombinantly expressed SrtA (final concentration: 1 µM) was incubated in assay buffer (50 mM Tris, 150 mM NaCl, 5 mM CaCl2, pH 7.50) with 25 µM of the FRET-pair substrate Abz-LPETG-Dap (Dnp)-OH (Genscript, Piscataway, New Jersey) and 0.5 mM tetraglycine (Sigma Aldrich, St. Louis, Missouri). Inhibitors were added from DMSO stocks. Reactions were initiated by addition of SrtA and monitored for 30 min at 30°C in an Infinite M200 Pro plate reader with λex 320 nm/λem 430 nm (Tecan, Männedorf, Switzerland). Three technical replicates were carried out for each inhibitor in black flat-bottom 96-well plates (Greiner bio-one, Kremsmünster, Austria). The enzyme kinetics of irreversible SrtA inactivation were analyzed as described previously ([Barthels et al., 2020]).

[2] = system: SrtA; design: method as in Jaudzems et al., 2020; details: after 16 h of incubation with 100 µM inhibitor; ref Jaudzems et al., 2020; cited from earlier work
[3] = biological target: T2, human cathepsin B (hCatB) (Homo sapiens, UniProt P07858); experiment: protease selectivity panel, fluorometric assay cathepsin B; type: biochemical; details: 100 µM inhibitor; read-out: CatB inhibition relative to the DMSO control
T2 construct: purchased Calbiochem, Merck Millipore
Procedure: (§1) To investigate how these sulfonylpyrimidines affect the activity of other cysteine and serine proteases, a selectivity panel was constructed from a matrix of 6 diverse sulfonylpyrimidines and 6 different proteases. The compounds were assayed at a final compound concentration of 100 µM for the cysteine proteases human cathepsin B (hCatB), cathepsin L (hCatL), and T. brucei rhodesain (Rd). Furthermore, the serine proteases NS2B-NS3 from Zika virus (ZIKV), the homologous protease from Dengue virus (DENV), and the human protease urokinase plasminogen activator (uPA) were tested for their susceptibility.
(§2) Fluorometric assays of the ZIKV/DENV NS2B/NS3 protease were performed as described previously ([Maus et al., 2021]). The assay was carried out in triplicates at 25°C in assay buffer (50 mM Tris, pH 9.0, 20% glycerol (v/v), and 1 mM CHAPS). 100 µM Boc-Gly-Arg-Arg-AMC (Bachem, Bubendorf, Switzerland) was used as a substrate. Fluorometric assays for cathepsin B, cathepsin L, and rhodesain (Calbiochem, Merck Millipore, Burlington, Massachusetts) were performed as described previously ([Klein et al., 2020a]). Cbz-Phe-Arg-AMC (Bachem, Bubendorf, Switzerland) was used as substrate (100 μM for cathepsin B, 6.5 μM for cathepsin L, and 10 µM for rhodesain). Fluorometric assays for urokinase plasminogen activator were performed as described previously ([Angelini et al., 2012]). 240 µM Cbz-Gly-Arg-Arg-AMC (Bachem, Bubendorf, Switzerland) was used as a substrate.

[4] = biological target: T3, cathepsin L (hCatL) (Homo sapiens, UniProt P07711); experiment: protease selectivity panel, fluorometric assay cathepsin L; type: biochemical; details: 100 µM inhibitor; read-out: CatL inhibition relative to the DMSO control
T3 construct: purchased Calbiochem, Merck Millipore
T3 sequence (P07711 114-333): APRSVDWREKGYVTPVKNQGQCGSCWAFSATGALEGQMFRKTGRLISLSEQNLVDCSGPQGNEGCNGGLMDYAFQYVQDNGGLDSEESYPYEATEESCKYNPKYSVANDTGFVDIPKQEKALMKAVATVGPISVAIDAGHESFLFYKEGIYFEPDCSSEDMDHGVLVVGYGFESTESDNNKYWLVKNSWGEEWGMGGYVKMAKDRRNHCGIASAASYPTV
Procedure: as §1, §2

[5] = biological target: T4, T. brucei rhodesain (Rd) (Trypanosoma brucei rhodesiense, UniProt Q95PM0); experiment: protease selectivity panel, fluorometric assay rhodesain; type: biochemical; details: 100 µM inhibitor; n. i. = no inhibition at 100 µM; read-out: Rd inhibition relative to the DMSO control
T4 construct: purchased Calbiochem, Merck Millipore
T4 sequence (Q95PM0 entry or part of it): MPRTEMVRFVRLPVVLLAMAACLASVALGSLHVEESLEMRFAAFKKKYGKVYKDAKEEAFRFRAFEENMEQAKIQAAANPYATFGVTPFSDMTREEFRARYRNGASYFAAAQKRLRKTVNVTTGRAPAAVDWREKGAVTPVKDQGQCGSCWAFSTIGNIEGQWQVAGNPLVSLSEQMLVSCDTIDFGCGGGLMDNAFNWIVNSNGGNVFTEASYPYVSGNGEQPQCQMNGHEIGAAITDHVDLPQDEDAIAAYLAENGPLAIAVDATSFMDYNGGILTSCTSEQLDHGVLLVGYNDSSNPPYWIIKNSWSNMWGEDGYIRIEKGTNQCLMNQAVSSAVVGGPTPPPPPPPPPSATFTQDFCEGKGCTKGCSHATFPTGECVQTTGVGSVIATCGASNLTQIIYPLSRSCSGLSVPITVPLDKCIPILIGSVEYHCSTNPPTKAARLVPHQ
Procedure: as §1, §2

[6] = biological target: T5, NS2B-NS3 from Zika virus (ZIKV) (Zika virus, UniProt Q32ZE1); experiment: protease selectivity panel, fluorometric assay ZIKV NS2B/NS3 protease; type: biochemical; details: 100 µM inhibitor; read-out: ZIKV inhibition relative to the DMSO control
T5 construct: The ZIKV NS2B/NS3 protease is a serine protease and contains two non-catalytic cysteine residues
T5 sequence (Q32ZE1 1499-1676): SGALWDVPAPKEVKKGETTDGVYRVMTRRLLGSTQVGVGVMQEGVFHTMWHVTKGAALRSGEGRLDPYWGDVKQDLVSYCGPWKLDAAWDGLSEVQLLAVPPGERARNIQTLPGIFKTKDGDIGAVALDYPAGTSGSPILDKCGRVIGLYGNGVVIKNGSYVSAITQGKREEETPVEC
T5 sequence (Q32ZE1 1421-1460): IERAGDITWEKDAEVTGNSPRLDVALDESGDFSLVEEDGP
Procedure: as §1, §2

[7] = cysteine reactivity assay (competitive fluorescence assay with probe 8); type: physicochemical
Text: In order to study the kinetics of sulfonylpyrimidines reacting with free cysteine in solution, a strategy for a competitive fluorescence-based assay was adapted from previous works ([Epps and Taylor, 2001]; [Sameshima et al., 2017]). […] The reaction of probe 8 with cysteine liberates 4-methylumbelliferone as a fluorometrically detectable product (Figure 7A), and thus, the fluorescence increase can be described by the second-order rate constant k probe (Equation 1).
Upon the addition of competitive and irreversible cysteine modifiers such as sulfonylpyrimidines, the fluorescence increase of the probe reaction was hyperbolically attenuated (Figure 7B). According to the conceptual deduction described previously ([Epps and Taylor, 2001]; [Sameshima et al., 2017]), the experimental fluorescence curves can be analyzed by nonlinear regression as first-order reaction progress curves (Equation 2). The parameter k obs describes the curvature corresponding to the sum of the competing kinetics (Equation 3). Under the assumptions that 1) the competitive reaction between sulfonylpyrimidines vs. probe with cysteine is started by simultaneous addition, and 2) sulfonylpyrimidines are added at a much higher concentration than cysteine (5 µM) and the probe (5 µM), the k obs values depend substantially on the k chem value. The compound-specific second-order inactivation parameter k chem can be determined by linear regression from the k obs values of the dilution series (Equation 4). d[FL]/dt=kprobe[Cys][probe] (1) FL=[Cys]total⋅kprobe [probe]/kprobe [probe] + kchem [sulfonylpyrimidine](1−e^−kobs⋅t) (2) kobs=kchem [sulfonylpyrimidine]+kprobe [probe] (3) kchem=kobs/[sulfonylpyrimidine] (4)
Kinetic characterization of the reaction between sulfonylpyrimidines and cysteine was performed in degassed phosphate buffer (1×PBS, pH 7.5) or individual cases in bicarbonate buffer (20 mM NaHCO3, 100 mM NaCl, pH 7.5). Three technical replicates were carried out for each sulfonylpyrimidine in black flat-bottom 96-well plates. For this purpose, 50 µL buffered solution (including 5% (v/v) DMSO) of the respective sulfonylpyrimidine derivative (final: 250–3 µM) and the cysteine reactive probe 8 (final: 5 µM) were premixed. Reactions were initiated by the addition of 50 µL cysteine (final: 5 µM), dissolved in the respective buffer, and monitored for 30 min at 30°C in an Infinite M200 Pro plate reader with λex 380 nm/λem 460 nm. To calculate k obs and k chem values, fluorescence curves were fitted using the same non-linear regression as for in vitro inhibition of SrtA ([Barthels et al., 2020]).

[8] = design: method as in Bauer et al.; details: ref Bauer et al.; cited from earlier work

Structure (SMILES)	k inact ([1]; maximum inactivation rate, Tris pH 7.50, n. i. = <20% inhibition at 100 µM)	KI (inactivation) ([1]; read-out: KI, dissociation constant of the reversible enzyme-inhibitor complex, Tris pH 7.50, n. i. = <20% inhibition at 100 µM)	k 2nd ([1]; second-order rate of inhibition, Tris pH 7.50, n. i. = <20% inhibition at 100 µM)	SrtA inhibition [2]	SrtA inhibition (in words) ([1]; final inhibitor concentration of 300 µM)	inhibition at 100 µM ([1]; read-out: SrtA inhibition relative to the DMSO control)	inhibition at 100 µM [3]	inhibition at 100 µM [4]	inhibition at 100 µM [5]	inhibition at 100 µM [6]	Cysteine k chem ([7]; bicarbonate buffered solution pH 7.5)	Cysteine k chem ([7]; phosphate buffer (1×PBS) pH 7.5)	k chem vs. glutathione [8]
CS(=O)(=O)c1ncc(Cl)c(C(=O)Nc2ccccc2Cc2ccccc2)n1 [Compound 4]	0.00065 s⁻¹ and 0.0006 s⁻¹ and 0.00065 ± 0.00007 s⁻¹	47.1 ± 15.7 µM	14.5 M⁻¹ s⁻¹ and 14.5 ± 2.83 M⁻¹ s⁻¹	97%									
CS(=O)(=O)c1ncc(Cl)c(C(=O)O)n1 [Compound 5c]					no SrtA inhibition	19.6%	5.8%	6.6%	20%	7.7%	0.365 ± 0.0212 M⁻¹ s⁻¹	1.05 M⁻¹ s⁻¹ and 1.05 ± 0.0335 M⁻¹ s⁻¹	82 M^−1min-^1
